Where two headings read alike, the source gives them in different places.

The series relates to Piglets. The following applies: for Mortality (%): (number of dead pigs/number of pigs enrolled)x100; for Clinical observations (%): percentage of pigs expressing clinical signs suggestive of product(s) side-effects: po. The method, then:
Safety Study: Studies for safety were conducted. The trials assessed the active ingredients individually and according to various combinations.
Example Safety Study: The following provides the procedure(s) and data collected from the exemplary safety study.
Six different sets of pigs were tested with six different formulations: • 1. […] Statin or Atorvastatin (1.6 mg/dose) • 3. Indomethacin (3.64 mg/dose) • 4. Doxycycline (6 mg/dose) • 5. Cimetidine (18 mg/dose) • 6. Positive control (compounded formulation of Atorvastatin, Indomethacin, […], Doxycycline, and Cimetidine)
Methods: A sow farm negative for Porcine Reproductive and Respiratory Syndrome virus (PRRSv) and Mycoplasma hyopneumoniae and experiencing little to no piglet enteric health challenges was enrolled for the study. Piglets (12-14 days of age) orally received one of the six formulations identified above. When receiving a formulation, 1 mL of assigned treatment was obtained and provided to the Piglets.
At d0 and d1, pen-level fecal consistency was studied. At d1, piglet mortality was recorded.
Fecal scores: Average fecal score (pen-level). Fecal scours 0, 1, 2, and 3 corresponded to normal, pasty, semi-liquid, and liquid feces, respectively, with scores of ≥2 corresponding to diarrhea.
Mortality: %=(number of dead pigs/number of pigs enrolled)×100.

For `C[C@H]1c2cccc(O)c2C(=O)C2=C(O)[C@]3(O)C(=O)C(C(N)=O)=C(O)[C@@H](N(C)C)[C@@H]3[C@@H](O)[C@@H]21` [Doxycycline], the “Mortality (%)” value runs as follows: (d 0) 0.0%; (d 1) 0.0%. Further, the “Fecal scores: average fecal score (pen-level)” value (shortened to “Fecal scores”) is given as 0.0 (pig, in vivo) and 0.0 (pig, in vivo, 1 day). Besides, the “Palatability (%): percentage of pigs expressing clinical signs suggestive of poor palatability” value (“Palatability (%): percentage” below) (pig, in vivo) was determined as 0.0%. Besides, the “Clinical observations (%): percentage of pigs expressing clinical signs suggestive of product(s) side-effects” value (“Clinical observations (%): percentage” for short) (pig, in vivo, 0 day) was found to be 0.0% and the “Clinical observations (%): percentage” value (pig, in vivo, 24 h) is given as 0.0%.
On to `COc1ccc2c(c1)c(CC(=O)O)c(C)n2C(=O)c1ccc(Cl)cc1` [Indomethacin], for which the “Mortality (%)” value is 0.0% (d 0) and 0.0% (d 1). Moreover, the “Fecal scores” value was determined as 0.0 (pig, in vivo) and 0.0 (pig, in vivo, 1 day). Moreover, the “Palatability (%): percentage” value (pig, in vivo) was found to be 0.0%. Further, the “Clinical observations (%): percentage” value by setting is: (pig, in vivo, 0 day) 0.0%; (pig, in vivo, 24 h) 0.0%.
`CC(C)c1c(C(=O)Nc2ccccc2)c(-c2ccccc2)c(-c2ccc(F)cc2)n1CC[C@@H](O)C[C@@H](O)CC(=O)O` [Atorvastatin]: the “Mortality (%)” value was 0.0% (d 0) and 0.0% (d 1). Also, under “pig, in vivo”, the “Fecal score of a single litter” value is on record as 1. The “Fecal scores” value runs as follows: (pig, in vivo) 0.5; (pig, in vivo, 1 day) 0.0. Besides, the “Palatability (%): percentage” value (pig, in vivo) turned out to be 0.0%. The “Clinical observations (%): percentage” value was found to be 0.0% (pig, in vivo, 0 day) and 0.0% (pig, in vivo, 24 h).
With `CN/C(=N/CCSCc1nc[nH]c1C)NC#N` [Cimetidine], the “Mortality (%)” value by setting is: (d 0) 0.0%; (d 1) 0.0%. The “Fecal scores” value (pig, in vivo) worked out at 0.0 and the “Fecal scores” value (pig, in vivo, 1 day) is recorded as 0.0. For the same molecule, where the note is “pig, in vivo”, the “Palatability (%): percentage” value stood at 0.0%. Further, the “Clinical observations (%): percentage” value is, setting by setting: (pig, in vivo, 0 day) 0.0%; (pig, in vivo, 24 h) 0.0%.

The record behind these values is patent US20250288557A1, “FORMULATION AND METHOD FOR TREATMENT OF INFECTIONS” (priority 2022, published 2025).
